Literature values, collected in US20130338126A1, “Ophthalmic Suspension for Ocular Use” (Allergan, Inc., priority 2008, published 2013).

Tests used:
[1] = system: Corynebacterium propinquum, Staphylococcus aureus, Staphylococcus epidermidis, Streptococcus mitis, Streptococcus pneumoniae, Haemophilus influenzae; conditions: both in vitro and clinically, in conjunctival infections
[2] = system: methicillin resistant Staphylococcus aureus, and Staphylococcus epidermidis; conditions: in vitro, gram-positive microorganisms
[3] = system: Streptococcus epidermidis
[4] = system: gram-negative microorganisms; conditions: many gram-negative microorganisms
[5] = system: Haemophylus influenzae clinical isolated cases; conditions: clinical isolates
bacteria = conditions: in vitro
[6] = system: Staphylococcus aureus and Staphylococcus epidermidis
[7] = system: topoisomerase II or gyrase mutations
[8] = ophthalmic solution 0.3% or 0.5% w/v, 2 drops up to 8 times a day; below inferior limit of quantification, all individuals
[9] = topical; p<0.005
bacterial conjunctivitis [10] = conditions: 0.3% ophthalmic solution, treated five days
bacterial conjunctivitis [11] = conditions: day 6 of treatment
[12] = system: bacterial flora in the eye
[13] = system: 379 isolated microorganisms; conditions: first day of treatment
[14] = system: Streptococcus pneumoniae isolates; conditions: all study visits
[15] = system: gram-negative bacteria, including all Haemophilus influenzae isolates; conditions: all study visits
[16] = human, in vivo

COc1c(N2CCNC(C)C2)c(F)cc2c(=O)c(C(=O)O)cn(C3CC3)c12 (centres unmarked) [gatifloxacin]
activity against most strains [1]: shown to be active | potency compared with ciprofloxacin, ofloxacin, levofloxacin and moxifloxacin [2]: more powerful than other quinolones | effectiveness relative to ofloxacin [3]: eight times more effective | activity compared to ofloxacin [4]: increased activity compared to ofloxacin | effectiveness relative to ofloxacin [5]: two times more effective | effectiveness relative to ciprofloxacin (mycobacterium): four times more effective/active | action when combined with amicacin and claritromicin (Mycobacterium chelonae): synergistic action | effectiveness relative to ciprofloxacin (Mycobacterium chelonae; p<0.001): more effective than ciprofloxacin | bacterial resistance (bacteria): low | bacterial resistance rates [6]: lower for gatifloxacin than for ciprofloxacin or norfloxacin | effect of mutations, compared to ofloxacin, ciprofloxacin, sparfloxacin and trovafloxacin [7]: less affected | cross-resistance with aminoglycosides, macrolides and tetracycline antibiotics (pathogenic agents): No cross-resistance has been observed | cross-resistance with some other fluoroquinolones (pathogenic agents; systemic gatifloxacin): Cross-resistance has been observed | plasma levels [8]: < 5 ng/mL | penetration in the eye structures compared to ciprofloxacin [9]: better penetration in the tissue | killing rate of etiological agents (bacterial conjunctivitis [10]): 92% | clinical cure rate (bacterial conjunctivitis [10]; culture-confirmed bacterial conjunctivitis): 77% | rates of microbiological cure (bacterial conjunctivitis [11]): 83.3% | action against gram-positive cocci versus ciprofloxacin (bacterial keratitis; p<0.001): significantly superior | rate of complete ulcer healing versus ciprofloxacin (bacterial keratitis; patients with keratitis): significantly higher rate of complete ulcer healing | rate of bacterial reduction in the conjunctiva ([12]; gatifloxacin 0.3% / levofloxacin 0.5% ophthalmic solutions, one week pre-operative): 74.3% | post-operative infection (endophthalmitis) ([12]; one week pre-operative treatment, cataract surgery): None of the individuals treated develop a post-operative infection | sensitiveness of isolates [13]: 95.8% | sensitivity of isolates [14]: All Streptococcus pneumoniae isolates were sensitive | sensitivity of isolates [15]: All gram-negative bacteria were also sensitive | adverse events: frequency, type, intensity or relation to causes versus ofloxacin or placebo [16]: no statistically significant differences
